The target of data set [1] is T1, Prostaglandin E2 receptor EP4 subtype (Homo sapiens, UniProt P35408). The data set is described as follows: Agonist activity at EP4 receptor expressed in HEK293 cells assessed as cAMP accumulation. The data set is classed as functional, cell-based. (In general: Changes in cAMP serve as a functional read-out for many G protein-coupled receptors.)
The test system of a further data set is Mus musculus. The data set is described as follows: Induction of ovulation in orally dosed CD1 mouse. Type of data set: functional. The conditions noted are these: CD1, po.
Data set [2] concerns the target T2, Prostaglandin E2 receptor EP2 subtype (Homo sapiens, UniProt P43116). The experiment in a line: Agonist activity at EP2 receptor expressed in HEK293 cells assessed as cAMP accumulation. The data set is classed as functional, cell-based.
In data set [3] the target is T2, Prostaglandin E2 receptor EP2 subtype. The experiment in a line: Displacement of [3H]PGE2 from human EP2 receptor expressed in HEK293 cells. Type of data set: cell-based. In general terms: In a radioligand displacement assay an active substance lowers the binding of a labelled ligand.
A short description of data set [4]: Bioavailability in rat at 1 mg/kg. The data set is classed as ADME, organism-based. Conditions: in vivo.
The target in data set [5] is T3, Prostaglandin E2 receptor EP1 subtype (Homo sapiens, UniProt P34995).
T3 sequence (P34995 whole entry): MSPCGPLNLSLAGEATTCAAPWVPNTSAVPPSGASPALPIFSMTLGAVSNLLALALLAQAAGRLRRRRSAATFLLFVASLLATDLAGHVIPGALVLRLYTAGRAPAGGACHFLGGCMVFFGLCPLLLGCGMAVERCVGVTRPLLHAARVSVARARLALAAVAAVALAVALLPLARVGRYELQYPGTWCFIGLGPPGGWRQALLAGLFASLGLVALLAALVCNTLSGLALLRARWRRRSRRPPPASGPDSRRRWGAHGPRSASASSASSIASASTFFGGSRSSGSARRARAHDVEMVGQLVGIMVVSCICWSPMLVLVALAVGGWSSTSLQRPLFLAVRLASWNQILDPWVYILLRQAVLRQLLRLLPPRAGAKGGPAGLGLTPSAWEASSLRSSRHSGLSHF
The experiment in a line: Displacement of [3H]PGE2 from human EP1 receptor expressed in HEK293 cells. Type of data set: cell-based.

The target in data set [6] is T1, Prostaglandin E2 receptor EP4 subtype. The data set is described as follows: Displacement of [3H]PGE2 from human EP4 receptor expressed in HEK293 cells. Type of data set: cell-based.
The nature of data set [7]: Half life in rat. Conditions: in vivo. The data set is classed as ADME, organism-based.
In data set [8] the target is T4, Prostaglandin E2 receptor EP3 subtype (Homo sapiens, UniProt P43115).
T4 sequence (P43115 whole entry): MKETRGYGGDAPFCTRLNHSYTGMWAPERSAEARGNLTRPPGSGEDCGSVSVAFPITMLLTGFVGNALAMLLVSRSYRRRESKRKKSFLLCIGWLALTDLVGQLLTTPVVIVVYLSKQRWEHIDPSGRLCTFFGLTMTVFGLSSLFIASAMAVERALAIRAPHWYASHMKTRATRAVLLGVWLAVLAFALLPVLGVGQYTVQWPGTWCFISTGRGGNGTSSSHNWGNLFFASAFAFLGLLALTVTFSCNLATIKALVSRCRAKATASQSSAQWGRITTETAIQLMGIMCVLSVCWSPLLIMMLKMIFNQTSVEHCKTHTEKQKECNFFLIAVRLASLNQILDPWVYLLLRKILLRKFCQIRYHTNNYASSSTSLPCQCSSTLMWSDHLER
The experiment in a line: Displacement of [3H]PGE2 from human EP3 receptor expressed in HEK293 cells. Type of data set: cell-based.

A short description of data set [9]: Clearance in iv dosed rat. The data set is classed as ADME, organism-based. Conditions: in vivo.

T2 sequence (P43116 whole entry): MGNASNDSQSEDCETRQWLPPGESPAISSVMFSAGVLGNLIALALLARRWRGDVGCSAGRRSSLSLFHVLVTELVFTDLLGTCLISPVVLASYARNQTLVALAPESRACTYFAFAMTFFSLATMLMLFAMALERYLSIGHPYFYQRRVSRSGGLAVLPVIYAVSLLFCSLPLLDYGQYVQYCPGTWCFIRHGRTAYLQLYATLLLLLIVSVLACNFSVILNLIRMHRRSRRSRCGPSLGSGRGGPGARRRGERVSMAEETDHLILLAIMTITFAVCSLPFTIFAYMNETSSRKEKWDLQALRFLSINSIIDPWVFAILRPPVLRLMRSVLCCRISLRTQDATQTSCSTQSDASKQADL
T1 sequence (P35408 whole entry): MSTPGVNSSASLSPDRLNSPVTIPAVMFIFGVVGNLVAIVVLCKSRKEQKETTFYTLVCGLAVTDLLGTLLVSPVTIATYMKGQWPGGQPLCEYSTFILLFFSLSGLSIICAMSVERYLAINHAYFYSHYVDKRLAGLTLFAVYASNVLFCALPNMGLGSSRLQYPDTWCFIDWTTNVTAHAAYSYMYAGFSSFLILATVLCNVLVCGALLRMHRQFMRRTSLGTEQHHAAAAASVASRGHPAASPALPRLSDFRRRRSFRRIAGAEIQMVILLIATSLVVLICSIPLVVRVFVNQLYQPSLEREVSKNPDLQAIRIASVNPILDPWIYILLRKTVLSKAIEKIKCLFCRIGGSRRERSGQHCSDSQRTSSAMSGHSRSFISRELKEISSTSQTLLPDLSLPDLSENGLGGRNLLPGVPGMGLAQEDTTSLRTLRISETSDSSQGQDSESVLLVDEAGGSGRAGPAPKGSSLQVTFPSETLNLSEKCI

As for `CCCC/C(C)=C\C=C\[C@H]1CCC(=O)N1CCc1ccc(C(=O)O)cc1`, the EC50 stood at 0.1 nM in [1] and 35 nM in [2]. The molecule further came in with an ED50 in the data set on Mus musculus of 1 mg/kg. Besides, the Ki in data set [3] is 60 nM; in data set [5], 10000 nM; in [6], 4 nM; in data set [8] it was 10000 nM. Besides, the bioavailability in [4] came to 72.6%. In data set [7], this molecule had a half-life of 7.7 h. Also, in data set [9], the clearance is 2.5 mL/min/kg.

For `CCCC/C=C\C=C\[C@H]1CCC(=O)N1CCc1ccc(C(=O)O)cc1`, the half-maximal effective concentration (EC50) in [1] worked out at 2 nM; in data set [2] it was 197 nM. Moreover, the Ki turned out to be 88 nM in data set [3] and 25 nM in data set [6].

Regarding `CCCC/C=C(C)/C=C\[C@H]1CCC(=O)N1CCc1ccc(C(=O)O)cc1`, the values for the Ki in data set [3] and in [6] were 802 nM and 443 nM, respectively.

For the molecule `CC(C)=C/C=C/[C@H]1CCC(=O)N1CCc1ccc(C(=O)O)cc1`, the concentration giving a half-maximal response (EC50) in [1] stood at 4 nM. Besides, the Ki amounted to 1850 nM in data set [3] and 45 nM in data set [6].

Regarding `CCCC[C@H](O)/C=C/[C@H]1CCC(=O)N1CCc1ccc(C(=O)O)cc1`, the results for the EC50 in data set [1] and in [2] were 0.002 nM and 16 nM, respectively. Moreover, the Ki in [3] was 126 nM; in data set [5], over 10000 nM; in [6] it was 2.5 nM; in data set [8], 9000 nM.

`CC/C(C)=C\C=C\[C@H]1CCC(=O)N1CCc1ccc(C(=O)O)cc1`: the EC50 in data set [1] was 3 nM. The Ki in [3] came to 173 nM; in data set [6] it was 24 nM.

Regarding `C/C(=C\C=C\[C@H]1CCC(=O)N1CCc1ccc(C(=O)O)cc1)c1ccccc1`, the EC50 in [1] was 0.5 nM; in data set [2], over 10000 nM. Also, the inhibitory constant (Ki) in data set [3] turned out to be 749 nM; in data set [6], 29 nM.

For the molecule `CCCC/C=C(C)/C=C/[C@H]1CCC(=O)N1CCc1ccc(C(=O)O)cc1`, in [3], the Ki was found to be 29 nM.

On to `CCCC/C(C)=C/C=C/[C@H]1CCC(=O)N1CCc1ccc(C(=O)O)cc1`, for which the EC50 in data set [1] was 15 nM; in data set [2], 222 nM. Also, the Ki in data set [3] turned out to be 134 nM; in data set [5], 10000 nM; in [6] it was 181 nM; in data set [8], 10000 nM.

For the molecule `C/C(=C/C=C/[C@H]1CCC(=O)N1CCc1ccc(C(=O)O)cc1)CC1CCCC1`, the inhibition constant (Ki) in data set [3] turned out to be 60 nM; in [6] it was 117 nM.

What is called EC50 is the concentration needed to bring the measured effect to its halfway point. Broadly, the ED50 is the midpoint of the dose-response relation. The Ki is the dissociation constant of the complex between target and ligand, obtained from inhibition or displacement. Higher therefore signals weaker binding. What is called bioavailability is the share of a dose that reaches the circulation, judged against a reference dose that is usually intravenous. Read a high bioavailability as good availability. In general, half-life refers to how long it takes for the measured level to halve. High values mean slow loss, low ones fast loss. One may read the clearance as a measure of how efficiently the substance is removed, as volume per time. Read a low clearance as a low capacity for elimination.

Values taken from ChEMBL document CHEMBL1140010, “Discovery of novel prostaglandin analogs of PGE2 as potent and selective EP2 and EP4 receptor agonists” (Bioorg Med Chem Lett, 2007).
